Reference: PMC12530843, “Identification of a New Interesting BAG3 Modulator Able to Disrupt Cancer‐Related Pathways” (Chemmedchem, 2025)

How the values were obtained:
BAG3 = target: T1, BAG3 (Homo sapiens, UniProt O95817); test: t-LiP-MS (targeted limited proteolysis-MS) in HeLa cell lysate; type: binding; settings: SP18 100 µM, subtilisin 30 min
T1 construct: endogenous in cells; host or cells: HeLa cell lysate
Method: To develop the t‐LiP‐MS experiment, MRM methods were optimized by selecting tryptic peptides for BAG3 (UniProt Accession: O95817) using the Human PeptideAtlas data repository in combination with SRMAtlas for their daughter ion identification. First, the three best transitions for each peptide were selected (obtaining a list of 57 transitions) and tested on a tryptic‐digested HeLa cell lysate, following the protocol of Capuano et al., 2024.^[ [41] ^] For chromatographic separation, 15 µL of peptide mixture samples (dissolved in 10% formic acid (FA) to a final concentration of 2 µg µL^−1) were injected and separated on an Aeris Peptide XB C18 column (50 × 2.1 mm, 3.6 μm, 100 Å, Phenomenex, Torrance, USA) using a gradient from 5% to 95% B in 12 min (A: 0.1% FA in H2O, B: 0.1% FA in CH3CN). QTrap parameters were as follows: curtain gas (CUR) = 30; ion‐spray voltage (IS) = 5500; temperature (TEM) = 250 °C; ion source gas 1 (GS1) = 25; ion source gas 2 (GS2) = 25; declustering potential (DP) = 80; entrance potential (EP) = 15; collision cell exit potential (CXP) = 12. Data acquisition and processing were performed using Analyst software 1.6.2 (AB Sciex, Foster City, CA, USA). At the end of the preliminary experiment, 14 best transitions were selected for the final MRM method.
For the t‐Lip‐MS experiment, HeLa cell lysate ([…]) was divided into aliquots and incubated for 1 hr either with DMSO (control sample) or SP18 (100 µM in DMSO) at room temperature under shaking (Mini‐Rotator, Biosan). Samples were then first subjected to limited proteolysis with the nonspecific enzyme subtilisin (enzyme‐to‐proteins ratio of 1:1500 w/w) for 30 min, at room temperature and under continuous shaking (500 rpm, Thermomixer, Biosan) and then extensively digested with the specific protease trypsin (enzyme to proteins ratio of 1:100 w/w, overnight, room temperature, 300 RPM).^[ [42] ^] […] Fold change (Fc) (the ratio between the peak area in the treated sample and control sample) was calculated for each peptide, and only those with Fc ≥1.5 and p‐value ≤0.05 were considered protected.^[ [41] ^]

HeLa cells [1] = test: Annexin V-FITC/PI apoptosis staining; type: cell-based, human; settings: 72 h
Method: Apoptosis in HeLa cells was evaluated using Annexin V‐FITC/PI staining. Hela cells (20 × 10^3) were seeded into 24‐well plates and incubated for 72 h with compound 2. The final concentration of DMSO for the tested compound was 0.1%, which was consistent with the percentage of DMSO used in the negative control. After treatments, cells were resuspended in a 100 μL of assay buffer per well, after which 5 μL of Annexin V‐FITC and 1 μL of PI reagents were added. […] The cells were analyzed with a Becton Dickinson FACScan flow cytometer using the Cell Quest software, version 4 (Franklin Lakes, NJ, USA).

HeLa cells [2] = test: Thioflavin T (ThT) protein misfolding staining; type: cell-based, human; settings: HeLa, 3, 6 and 12 µM, 72 h; p < 0.01 (3 µM), p < 0.001 (6, 12 µM) vs. Ctrl
Method: Protein misfolding was analyzed by using Thioflavin T (ThT, Sigma Aldrich, St. Louis, MO, USA) staining.^[ [39] ^] HeLa cells (4 × 10^3 cells well^−1) were grown in 96‐well plates and allowed to adhere for 24 h. The medium was then replaced, and the cells were treated with compound 2 (3, 6, and 12 µM) for 72 h. The final concentration of DMSO for the tested compound was 0.1%, which is consistent with the percentage of DMSO used in the negative control. After treatments, the culture medium was replaced, cells were washed with PBS and 100 μL well^−1 of ThT was added (final concentration, 20 µM). After incubation at 37 °C for 20 min in the dark, live cells were analyzed by using ZOE Fluorescent Cell Imager microscope (Biorad, Hercules, California, USA). Magnification, 20×. Scale bar: 100 μm (N ≥ 5). Quantitative analyses were performed in end point mode using a PerkinElmer EnSpire multimode plate reader (excitation/emission 450 nm/482 nm).

T1 sequence (O95817 whole entry): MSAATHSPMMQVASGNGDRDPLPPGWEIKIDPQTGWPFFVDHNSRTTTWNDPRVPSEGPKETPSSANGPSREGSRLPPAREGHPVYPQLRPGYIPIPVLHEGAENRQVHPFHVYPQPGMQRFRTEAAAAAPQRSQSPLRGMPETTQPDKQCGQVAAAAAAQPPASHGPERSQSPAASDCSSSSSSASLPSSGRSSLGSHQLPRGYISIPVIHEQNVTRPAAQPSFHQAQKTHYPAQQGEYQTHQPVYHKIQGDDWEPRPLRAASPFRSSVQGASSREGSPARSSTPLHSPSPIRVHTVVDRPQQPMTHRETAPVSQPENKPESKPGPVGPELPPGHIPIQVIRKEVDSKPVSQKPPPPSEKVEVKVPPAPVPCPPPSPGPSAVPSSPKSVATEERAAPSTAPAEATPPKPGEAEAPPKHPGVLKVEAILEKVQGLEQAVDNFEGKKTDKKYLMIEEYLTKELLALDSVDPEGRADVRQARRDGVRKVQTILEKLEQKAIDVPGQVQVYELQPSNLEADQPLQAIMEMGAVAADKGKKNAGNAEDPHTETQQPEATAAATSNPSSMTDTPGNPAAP

Compound: O=C(OCc1cn(Cc2ccc(C(=O)c3ccccc3)cc2)nn1)c1cccc([N+](=O)[O-])c1 [SP18]
- Fold change (Fc) of protected BAG3 peptide V [432–445] K (BAG3; p value 0.01): 1.74
- Fold change (Fc) of protected BAG3 peptide E [461–473] R (BAG3; p value 0.02): 1.67
- Fold change (Fc) of protected BAG3 peptide T [231–249] K (BAG3; p value 0.04): 1.68

Compound: O=C(OCc1cn(Cc2ccc3c(c2)C(=O)c2ccccc2C3=O)nn1)c1cccc([N+](=O)[O-])c1 [Compound 2, (1‐((9,10‐Dioxo‐9,10‐dihydroanthracen‐2‐yl)methyl)‐1H‐1,2,3‐triazol‐4‐yl)methyl 3‐nitrobenzoate]
- cells undergoing apoptosis (HeLa cells [1]; 20 µM, p < 0.05 vs. control): 21.6 ± 1.14%
- cells undergoing apoptosis (HeLa cells [1]; 30 µM, p < 0.05 vs. control): 28.0 ± 3.41%
- cells undergoing apoptosis (HeLa cells [1]; 50 µM, p < 0.01 vs. control): 40.2 ± 2.11%
- protein misfolding and aggregate formation (ThT) (HeLa cells [2]): significant induction of protein misfolding and aggregate formation
